Patent US20040005537A1, “Method of identifying toxic agents using differential gene expression” (priority 2000, published 2004)

Tested on: rat heart tissue
Experiment: GENECALLING differential gene expression analysis after dosing of serotonin modulating agents
Assay type: in vivo, Sprague Dawley rats
Description: Control animals received sterile water or canola oil. The animals were sacrificed 24 hours following the last dose. Liver tissue was dissected from the animals, and total RNA was recovered from the dissected tissue. cDNA was prepared and the resulting samples were processed through using GENECALLING™ differential expression analysis as described in U.S. Pat. No. 5,871,697 and in Shimkets et al., Nature Biotechnology 17:798-803 (1999). The contents of these patents and publications are incorporated herein by reference in their entirety.
Thousands of gene fragments were initially found to be differentially expressed in rat heart tissue in response to serotonin modulating agents in. Genes fragments whose expression levels were modulated greater than ±1.5-fold were selected for further analysis.
Column 6 of Table 1, entitled “Function”, lists the type of classification assigned for the protein, based on its function. The 210 single nucleic acid sequences identified herein, are referred to herein as CARDIOTOX 1-210.

SMILES: CNS(=O)(=O)Cc1ccc2[nH]cc(CCN(C)C)c2c1 [sumatriptan]
- Effects on Transcription Level: Novel gene fragment, 535 bp, 90% SI to mouse slow/cardiac troponin C [M29793] (CARDIOTOX 71): −2.1 fold
- Effects on Transcription Level: Novel gene fragment, 445 bp, 85% SI to human skeletal muscle alpha 2 actinin [M86406] (CARDIOTOX 72): 5.7 fold
- Effects on Transcription Level: Novel gene fragment, 246 bp, 89% SI to mouse ponsin-1 [AF078667] (CARDIOTOX 73): −3.2 fold
- Effects on Transcription Level: Novel gene fragment, 126 bp, 77% SI to human DNA sequence from cosmid V311G7, between markers DXS366 and DXS87 on chromosome X [Z69304] (CARDIOTOX 74): +2.1 fold
- Effects on Transcription Level: Novel gene fragment, 370 bp (CARDIOTOX 75): −2.7 fold
- Effects on Transcription Level: Novel gene fragment, 337 bp, 78% SI to novel human protein AHNAK [M80899] (CARDIOTOX 76): −4.3 fold
- Effects on Transcription Level: Novel gene fragment, 100 bp, 93% SI to human KIAA0750 protein [ABO18293] (CARDIOTOX 77): −9.3 fold
- Effects on Transcription Level: Novel gene fragment, 44 bp (CARDIOTOX 78): −5.4 fold
- Effects on Transcription Level: Novel gene fragment, 698 bp, 93% SI to mouse plenty-of-prolines-101 [AF062655] (CARDIOTOX 79): −2.3 fold
- Effects on Transcription Level: Novel gene fragment, 660 bp, 84% SI to mouse membrane protein TMS-2 [AF181685] (CARDIOTOX 80): −3.8 fold
- Effects on Transcription Level: Novel gene fragment, 115 bp (CARDIOTOX 81): −4.1 fold
- Effects on Transcription Level: Novel gene fragment, 294 bp, 95% SI to mouse Ndr1 related protein Ndr2 [AB033921] (CARDIOTOX 82): −2.0 fold
- Effects on Transcription Level: Novel gene fragment, 198 bp (CARDIOTOX 83): +2.5 fold
- Effects on Transcription Level: Novel gene fragment, 730 bp, 86% SI to mouse E800 [Y10968] (CARDIOTOX 84): −2.8 fold
- Effects on Transcription Level: Novel gene fragment, 294 bp, 98% SI to cysteine conjugate beta-lyase [S61960] (CARDIOTOX 85): −2.8 fold
- Effects on Transcription Level: Aconitase (CARDIOTOX 86, GenBank A1243266): −1.9 fold
- Effects on Transcription Level: Ribosomal protein L7 (CARDIOTOX 87, GenBank M17422): +2.5 fold
- Effects on Transcription Level: Ribosomal protein L9 (CARDIOTOX 88, GenBank X51706): +10.1 fold
- Effects on Transcription Level: Ribosomal protein L12 (CARDIOTOX 89, GenBank X53504): −1.5 fold
- Effects on Transcription Level: 18S, 5.8S, and 28S ribosomal RNA's (CARDIOTOX 90, GenBank V01270): +5 fold
- Effects on Transcription Level: Pyruvate dehydrogenase kinase 2 (PDK2) (CARDIOTOX 91, GenBank U10357): −6.10 fold
- Effects on Transcription Level: D-Binding Protein (DBP) (CARDIOTOX 92, GenBank J03179): −1.4 fold
- Effects on Transcription Level: Lipoprotein lipase (CARDIOTOX 93, GenBank L03294): −2.2 fold
- Effects on Transcription Level: Non-neuronal enolase (CARDIOTOX 94, GenBank X02610): +3.5 fold
- Effects on Transcription Level: Glycogen phosphorylase (muscle isozyme) (CARDIOTOX 95, GenBank L10669): −2.6 fold
- Effects on Transcription Level: Cytochrome c oxidase subunit IV (CARDIOTOX 96, GenBank X14209): +10.0 fold
- Effects on Transcription Level: Alpha-globin (CARDIOTOX 97, GenBank M17083): +3.8 fold
- Effects on Transcription Level: Beta-globin (CARDIOTOX 98, GenBank X06701): +3.11 fold
- Effects on Transcription Level: Myoglobin (CARDIOTOX 99, GenBank AF197916): +4.7 fold
- Effects on Transcription Level: Titin (CARDIOTOX 100, GenBank L38717): −2.1 fold
- Effects on Transcription Level: Skeletal muscle actin (CARDIOTOX 101, GenBank V01218): −18.3 fold
- Effects on Transcription Level: Myosin light chain 2 (MLC2) (CARDIOTOX 102, GenBank M11851): +2.2 fold
- Effects on Transcription Level: Alpha cardiac myosin heavy chain (CARDIOTOX 103, GenBank X15938): −3.5 fold
- Effects on Transcription Level: Troponin I (CARDIOTOX 104, GenBank U77354): +1.8 fold
- Effects on Transcription Level: Cardiac calsequestrin (CARDIOTOX 105, GenBank AF001334): −2.9 fold
- Effects on Transcription Level: Sulfated glycoprotein 2 (CARDIOTOX 106, GenBank M16975): −1.6 fold
- Effects on Transcription Level: Aquaporin 7 (CARDIOTOX 107, GenBank AB000507): +1.5 fold
- Effects on Transcription Level: Carnitine/acylcarnitine carrier protein (CARDIOTOX 108, GenBank X97831): −2.5 fold
- Effects on Transcription Level: Glu-Pro Dipeptide Repeat (CARDIOTOX 109, GenBank U40628): −6.2 fold
- Effects on Transcription Level: Cystatin beta (CARDIOTOX 110, GenBank X54737): +2.5 fold
- Effects on Transcription Level: Novel gene fragment, 593 bp, 90% SI to human calcineurin B-like protein [Z08983] (CARDIOTOX 111): +1.10 fold
- Effects on Transcription Level: Novel gene fragment, 179 bp, 88% SI to human titin [X90568] (CARDIOTOX 112): −3.1 fold
- Effects on Transcription Level: Novel gene fragment, 700 bp, 91% SI to mouse periplakin (PPL) [AF116523] (CARDIOTOX 113): +2.5 fold
- Effects on Transcription Level: Long chain acyl-CoA dehydrogenase (LCAD) (CARDIOTOX 114, GenBank J05029): +1.7 fold
- Effects on Transcription Level: Sulfated glycoprotein 1 (SGP-1) (CARDIOTOX 115, GenBank M19936): −1.8 fold
- Effects on Transcription Level: Catalase (CARDIOTOX 116, GenBank M11670): +2.1 fold
- Effects on Transcription Level: Alpha-fodrin (A2A) (Nonerythroid spectrin alpha subunit) (CARDIOTOX 117, GenBank AF084186): −1.7 fold
- Effects on Transcription Level: Cardiac specific sodium channel alpha-subunit (CARDIOTOX 118, GenBank M27902): −2.0 fold
- Effects on Transcription Level: Glu-Pro Dipeptide Repeat (CARDIOTOX 119, GenBank U40628): +4.2 fold
- Effects on Transcription Level: Novel gene fragment, 200 bp, 64% SI to human KIAA0733 protein [AB018316] (CARDIOTOX 120): −1.6 fold
- Effects on Transcription Level: RNA polymerase II transcription factor SIII (p18 subunit) (CARDIOTOX 121, GenBank L42855): +2.1 fold
- Effects on Transcription Level: Protein-tyrosine phosphalase (LRP) (CARDIOTOX 122, GenBank L01702): +1.8 fold
- Effects on Transcription Level: Skeletal muscle selenoprotein W (SelW) (CARDIOTOX 123, GenBank U25264): −1.6 fold
- Effects on Transcription Level: Sarcoplasmic reticulum 2+-Ca-ATPase (CARDIOTOX 124, GenBank X15635): −2.1 fold
- Effects on Transcription Level: Ribosomal protein S7 (CARDIOTOX 125, GenBank X53377): +1.7 fold
- Effects on Transcription Level: Ribophorin I (CARDIOTOX 126, GenBank X05300): +2.0 fold
- Effects on Transcription Level: Beta cardiac myosin heavy chain (CARDIOTOX 127, GenBank X15939): +2.2 fold
- Effects on Transcription Level: ADP-ribosylation factor 1 (CARDIOTOX 128, GenBank L12380): +1.3 fold
- Effects on Transcription Level: Laminin receptor (CARDIOTOX 129, GenBank U04942): +2.6 fold
- Effects on Transcription Level: Novel gene fragment, 206 bp, 89% SI to human seryl-tRNA synthetase [X91257] (CARDIOTOX 130): +1.8 fold
- Effects on Transcription Level: Annexin VI (CARDIOTOX 131, GenBank X86086): −09.0 fold
- Effects on Transcription Level: Novel gene fragment, 325 bp, 90% SI to mouse N-RAP [U76618] (CARDIOTOX 132): +1.7 fold
- Effects on Transcription Level: Novel gene fragment, 61 bp (CARDIOTOX 134) (LD10 dose for three days): −3 fold
- Effects on Transcription Level: Novel gene fragment, 337 bp (CARDIOTOX 133) (LD10 dose for three days): −2.1 fold
- Effects on Transcription Level: Novel gene fragment, 378 bp, 88% SI to human coatomer protein (COPA) [U24105] (CARDIOTOX 138) (LD10 dose for three days): −2.1 fold
- Effects on Transcription Level: Long chain 3-ketoacyl-CoA thiolase (CARDIOTOX 136) (LD10 dose for three days, GenBank D16479): −1.5 fold
- Effects on Transcription Level: TATA-binding protein interacting protein 120 (TIP120) (CARDIOTOX 135) (LD10 dose for three days, GenBank D87671): +2.4 fold
- Effects on Transcription Level: Serine protease (CARDIOTOX 139) (LD10 dose for three days, GenBank D88250): +1.7 fold
- Effects on Transcription Level: Thymosin beta-4 (CARDIOTOX 137) (LD10 dose for three days, GenBank M34043): +1.4 fold
- Effects on Transcription Level: Annexin VI (no CARDIOTOX assignment given) (LD10 dose for three days, GenBank X86086): −5.1 fold
